# Experimental data as given in patent US20250051391A1, “PEPTIDE INHIBITORS AND METHODS FOR INHIBITING PROTEIN AGGREGATION IN NEURONS AND NEURODEGENERATIVE DISEASES” (THE GOVERNING COUNCIL OF THE UNIVERSITY OF TORONTO, priority 2021, published 2025).
# Assays:
# [1] = tested on: HEK293 cells overexpressing A53T a-syn; assay: Cytotoxicity screen of lentiviral 7-mer peptide library, Alpha syn A53T cells under MG132; type: cell-based, human; details: for Reads 0 uM MG132 / Reads 10 UM MG132 / Reads 25 UM MG132 / Reads 50 UM MG132: normalized Illumina peptide counts
# From the text: (§1) A screening system to discover candidate peptides to perturb endogenous PPIs based on libraries of short linear interaction motifs that mediate a large fraction (˜30%) of human PPIs (10-12) was recently developed. Here, a lentiviral library of 50,549 7-mer peptide motifs (13) on a green fluorescent protein (GFP) scaffold (FIG. 1A) was used. Cells in a pooled format were infected and the amino acid sequence of each peptide served as its own barcode. By using a low multiplicity of infection followed by puromycin selection, each infected cell expressed one unique GFP-peptide. Peptides that reduced a-syn-mediated cytotoxicity or a-syn oligomers in parallel (FIG. 1A), were screened for.
# (§2) To cause cytotoxicity relevant to PD, proteostatic stress in HEK293 cells was induced by inhibiting the proteasome with MG132 and inducing the overexpression of human a-syn (WT) from idiopathic PD in one screen and the more toxic A53T mutant from familial PD in a second screen. The combination of a-syn overexpression and pharmacological proteasome inhibition led to death of most cells, with only those that expressed a protective peptide surviving. By extracting genomic DNA from the surviving cells and amplifying the peptide coding sequences, the protective peptides (FIG. 1A) were identified.
# (§3) PCR primers that included the Illumina adaptor sequences were used to amplify peptide coding sequences recovered from selection and cell sorting. Results were demultiplexed, and peptide counts were tallied. After demultiplexing, only reads with an average quality Phred score of >30 were selected, and frequencies were calculated. Finally, the reads were then normalized to the total number of peptides read for that sample population, and a scalar factor was applied. In parallel, ˜25 individual colonies were Sanger sequenced to compare to the NGS data.
# (§4) Lentiviruses were made in a 15 cm dish format by transfecting packaging cells (293T) with a three-plasmid system as previously described. Viral transduction of HEK293T cells, tet-off split luciferase a-syn cells, tet-off parent cells, and SH-SY5Y cells were performed with a multiplicity of infection of 0.3 (MOI=0.3). Infected cells were selected in puromycin-containing medium to eliminate uninfected cells and three aliquots of cells were collected for sampling of the initial (TO) cell population. Cells were treated with MG132 at concentrations of 0 μM, 10 μM, 25 μM or 50 μM. For the cell viability screen, surviving cells were collected and gDNA was extracted for identification of peptide inhibitors of cell toxicity. For the inhibition of a-syn aggregation screen, split YFP-a-syn constructs were transfected following stable expression of the peptides. Cells were sorted based on their GFP fluorescence intensities with a FACSVantage SE cell sorter (BD Bioscience).
# (§5) Genomic DNA (gDNA) from peptide expressing cells at different time-points was extracted using QIAamp DNA Blood Mini Kit. PCR amplifications of peptides from gDNA in parallel with the lentiviral plasmid library (naïve library) were performed using indexed Illumina PCR primers to incorporate both the Illumina adapter sequences and indexing sequences. Each 50 μl reaction contained 3.2 μg of template, 2×PCR buffer, 2× enhancer solution, 300 μM each dNTP, 900 nM each of Adapter A (5′-[…]-[…]-3′) (SEQ ID NO: 42) and Adapter B (5′-[…]-[…]-3′) (SEQ ID NO: 43), 1 mM MgSO4, 3.75 units of Platinum Pfx polymerase, and water to 50 μl. The PCR reaction was performed by denaturing at 94° C. for 5 minutes, followed by cycling (94° C. for 30 seconds, 65° C. for 30 seconds, 68° C. for 30 seconds)×28 cycles, 68° C. for 5 minutes, then cooling to 4° C. The resulting 244 bp product was purified by electrophoresis in 2% agarose followed by gel extraction. Peptide libraries were quantified using Quant-It assay (Invitrogen) and pooled. […]
# [2] = tested on: a-syn oligomers in HEK293 cells; assay: Oligomers screen (split YFP-a-syn protein fragment complementation, FACS); type: cell-based, human; details: for Reads GFP High: FACS fraction GFP High; for Reads GFP Inter: FACS fraction GFP Inter; for Reads GFP Neg: FACS fraction GFP Neg
# From the text: To detect a-syn oligomers, a protein fragment complementation assay (PCA) of a-syn oligomerization in HEK293 cells (14) was used. In this assay, human A53T a-syn was fused to either the C- or N-terminal half of yellow fluorescent protein (YFP). No fluorescence is detectable while a-syn exists in monomers but, when a-syn oligomerizes, the two halves of YFP come in close enough proximity to form a functional, spontaneously fluorescent protein. […] By using fluorescence activated cell sorting (FACS), cells expressing Flag-tagged peptides that directly or indirectly interfered with a-syn oligomer formation were isolated and then the peptides were identified from genomic DNA (FIG. 1A). The screens yielded 10 hits (Table 1). The hit with the most reads (i.e., the most abundant) was the same peptide in all screens: IPIQLKA (SEQ ID NO: 1) (PDpep1) (Table 2). […] Lead peptide targets CHMP2B, a member of ESCRT-III
# as §3, §4
# Cells were harvested by trypsin treatment and centrifuged at 500×g for 5 minutes. The pellet was resuspended in ice-cold PBS and centrifuged again. The pellet was then resuspended at a concentration of 4×10^6 cells/ml in the sorting buffer, which is PBS containing 100 Kunitz Dnase l/ml, 10 μg/ml propidium iodide (Sigma) and 2% FBS. The sorting solution was also supplemented with either 10 μM forskolin, 100 μM 5,6-Dichlorobenzimidazole riboside (DRB, Sigma), 10 μM forskolin (Sigma) and 100 μM DRB or DMSO, as a control. The cells were then sent through a 40 μm filter to remove large clumps and loaded into either a FACScan Flow Cytometer (BD Bioscience) for cell analysis or a FACSVantage SE cell sorter (BD Bioscience) for cell sorting. The cells with positive propidium iodide staining (i.e., dead cells) were first eliminated from the analysis or sorting pool. For cell sorting, the desired population, either the most or least bright EGFP-positive cells, according to the purpose of the experiments (see Results), was sorted into either 15 ml conical tubes or 96-well plates, which both contained complete DMEM culture media.
# Genomic DNA (gDNA) from peptide expressing cells at different time-points was extracted using QIAamp DNA Blood Mini Kit. PCR amplifications of peptides from gDNA in parallel with the lentiviral plasmid library (naïve library) were performed using indexed Illumina PCR primers to incorporate both the Illumina adapter sequences and indexing sequences. […]
# [3] = tested on: HEK293 cells overexpressing human a-syn (WT); assay: Cytotoxicity screen of lentiviral 7-mer peptide library, Alpha Syn (WT) cells under MG132; type: cell-based; details: for Reads 0 uM MG132 / Reads 10 UM MG132 / Reads 25 UM MG132: normalized Illumina peptide counts
# From the text: as §1, §2, §3, §4, §5
Substance,Slope Norm Reads [1],Reads 0 uM MG132 [1],Reads 10 UM MG132 [1],Reads 25 UM MG132 [1],Reads 50 UM MG132 [1],Reads Ratio [2],Reads GFP High [2],Reads GFP Inter [2],Reads GFP Neg [2],Slope Norm Reads [3],Reads 0 uM MG132 [3],Reads 10 UM MG132 [3],Reads 25 UM MG132 [3]
"QSVVTAP [7-mer library hit, A53T screen]",1.38,8,6,37,465,,,,,,,,
"PAMQIDG [7-mer library hit, A53T screen]",0.96,32,20,53,337,,,,,,,,
"VYLDILG [7-mer library hit, oligomers screen]",,,,,,30.55,1,0,59,,,,
"WPRYPHI [7-mer library hit, oligomers screen]",,,,,,47.36,1,0,92,,,,
"EDVNKCV [7-mer library hit, A53T screen]",0.68,6,6,13,233,,,,,,,,
"CKYRSVL [7-mer library hit, A53T screen]",1.30,5,7,11,438,,,,,,,,
"LPSKIYK [7-mer library hit, oligomers screen]",,,,,,29.53,1,0,57,,,,
"CFLFQIQ [7-mer library hit, oligomers screen]",,,,,,45.32,1,0,88,,,,
"QVSVAQQ [7-mer library hit, A53T screen]",0.69,45,13,120,246,,,,,,,,
"TQKRELT [7-mer library hit, oligomers screen]",,,,,,35.64,1,0,69,,,,
"LSGECVP [7-mer library hit, Alpha Syn screen]",,,,,,,,,,0.07,3,28,28
"QSPSSAW [7-mer library hit, A53T screen]",0.82,9,45,59,284,,,,,,,,
"CMVHSAG [7-mer library hit, Alpha Syn screen]",,,,,,,,,,0.08,4,14,33
"DWLMVNL [7-mer library hit, Alpha Syn screen]",,,,,,,,,,0.13,1,13,29
"AAYNLCA [7-mer library hit, Alpha Syn screen]",,,,,,,,,,0.07,1,14,19
"RAPSCHL [7-mer library hit, Alpha Syn screen]",,,,,,,,,,0.15,1,13,33
"GWTTVRR [7-mer library hit, A53T screen]",0.94,15,1,29,322,,,,,,,,
"PLPTGMG [7-mer library hit, Alpha Syn screen]",,,,,,,,,,0.08,1,3,20
"LPASMPC [7-mer library hit, Alpha Syn screen]",,,,,,,,,,0.09,2,16,27
"LQVGVAV [7-mer library hit, Alpha Syn screen]",,,,,,,,,,0.09,1,25,23
"GAAAGGT [7-mer library hit, Alpha Syn screen]",,,,,,,,,,0.06,1,10,17
"NNQYSFV [7-mer library hit, oligomers screen]",,,,,,30.04,1,0,58,,,,
"QAELSNS [7-mer library hit, A53T screen]",0.69,6,8,10,235,,,,,,,,
"LKRDQPV [7-mer library hit, oligomers screen]",,,,,,30.30,3,0,118,,,,
"MQMKLSQ [7-mer library hit, oligomers screen]",,,,,,36.15,1,0,70,,,,
"QSVLQQV [7-mer library hit, A53T screen]",0.82,13,2,12,282,,,,,,,,
"ECHTKIR [7-mer library hit, oligomers screen]",,,,,,39.21,1,0,76,,,,
